What was measured:
Assay type in all cases: in vivo, human
APRI and FIB-4 scores = experiment: Study 202 post-hoc APRI and FIB-4 fibrosis index scores
Description: APRI and FIB-4 scores were calculated. Change in score category from baseline (BL) to Weeks 24 and 48 was assessed in patients with non-missing data. Correlations between changes from BL in APRI and FIB-4 scores, and MCP-1 (CCR2 ligand) and sCD14 (inflammatory biomarker) levels were evaluated.

HIV-1 = experiment: Study 202 Phase 2b: virologic response (HIV-1 RNA <50 copies/mL, FDA Snapshot)
Source text: Subjects with a history of HIV-2, hepatitis B and/or C, cirrhosis of the liver or any known active or chronic active liver disease were excluded from the study.
The primary efficacy endpoint was virologic response at Week 24, defined as HIV-1 RNA<50 copies/mL using the FDA Snapshot Algorithm.

[1] = tested on: MCP-1, sCD14, hs-CRP, IL-6, D-dimer, fibrinogen; experiment: Study 202: biomarkers of inflammation and immune function
Description: As an exploratory analysis, levels of inflammation biomarkers MCP-1, sCD14, high sensitivity C-reactive protein [hs-CRP], interleukin-6 [IL-6], D-dimer, and fibrinogen) were measured. Baseline values and changes from baseline at Week 24 and Week 48 of MCP-1, sCD14, hs-CRP, IL-6, D-dimer, and fibrinogen are summarized in Table 25.
The sCD14 samples were originally analyzed in 2 separate batches: Batch 1 included samples leading up to the Week 24 primary analysis and Batch 2 included Week 32 and Week 48 (end of study) samples. A repeat analysis of archived samples all analyzed in one batch was conducted for consistency in analysis across time points. To control for the effects of covariates, a linear mixed-model repeated-measures analysis was conducted on the changes from baseline in sCD14 (analysis dated September 2013).

CCCCOCCOc1ccc(-c2ccc3c(c2)/C=C(/C(=O)Nc2ccc([S@@+]([O-])Cc4cncn4CCC)cc2)CCCN3CC(C)C)cc1 [CVC, (S)-8-[4-(2-Butoxyethoxy)phenyl]-1-isobutyl-N-(4-{[(1-propyl-1H-imidazol-5-yl)methyl]sulfinyl}phenyl)-1,2,3,4-tetrahydro-1-benzazocine-5-carboxamide]
Patients in APRI category 0.5-1.5 (APRI and FIB-4 scores; Baseline): 14% | Patients in APRI category >1.5 (APRI and FIB-4 scores; Baseline): 2% | Patients in FIB-4 category 1.45-3.25 (APRI and FIB-4 scores; Baseline): 17% | Patients in FIB-4 category <1.45 (APRI and FIB-4 scores; Baseline): 82% | Patients in FIB-4 category >3.25 (APRI and FIB-4 scores; Baseline): 1% | Patients in APRI category <0.5 (APRI and FIB-4 scores; Baseline, CVC pooled 100/200 mg or EFV): 84% | Patients in APRI category 0.5-1.5 (APRI and FIB-4 scores; Week 24): 7% | Patients in APRI category <0.5 (APRI and FIB-4 scores; Week 24): 93% | Patients in FIB-4 category 1.45-3.25 (APRI and FIB-4 scores; Week 24): 7% | Patients in FIB-4 category <1.45 (APRI and FIB-4 scores; Week 24): 93% | Patients with APRI decreased 1 category from baseline (APRI and FIB-4 scores; Week 24): 14% | Patients with FIB-4 decreased 1 category from baseline (APRI and FIB-4 scores; Week 24): 13% | Patients in APRI category 0.5-1.5 (APRI and FIB-4 scores; Week 48): 8% | Patients in APRI category <0.5 (APRI and FIB-4 scores; Week 48): 91% | Patients in APRI category >1.5 (APRI and FIB-4 scores; Week 48): 1% | Patients in FIB-4 category 1.45-3.25 (APRI and FIB-4 scores; Week 48): 5% | Patients in FIB-4 category <1.45 (APRI and FIB-4 scores; Week 48): 94% | Patients in FIB-4 category >3.25 (APRI and FIB-4 scores; Week 48): 1% | Patients with APRI decreased 1 category from baseline (APRI and FIB-4 scores; Week 48): 10% | Patients with FIB-4 decreased 1 category from baseline (APRI and FIB-4 scores; Week 48): 14% | Subjects with improvements in APRI and FIB-4 scores over time (APRI and FIB-4 scores; all CVC-treated subjects (pooled 100 mg and 200 mg)): ≥ 10% | Virologic success (HIV-1 RNA <50 copies/mL) (HIV-1; CVC 100 mg + FTC/TDF, Week 24): 76% | Virologic success (HIV-1 RNA <50 copies/mL) (HIV-1; CVC 100 mg + FTC/TDF, Week 48): 68% | Virologic success (HIV-1 RNA <50 copies/mL) (HIV-1; CVC 200 mg + FTC/TDF, Week 24): 73% | Virologic success (HIV-1 RNA <50 copies/mL) (HIV-1; CVC 200 mg + FTC/TDF, Week 48): 64% | D-dimer baseline value, mean ([1]; CVC 100 mg): 187 ng/mL | D-dimer baseline value, median ([1]; CVC 100 mg): 150 ng/mL | D-dimer change from baseline at Week 24, mean ([1]; CVC 100 mg): -32 ng/mL | D-dimer change from baseline at Week 24, median ([1]; CVC 100 mg): -1.0 ng/mL | D-dimer change from baseline at Week 48, mean ([1]; CVC 100 mg): -41 ng/mL | D-dimer change from baseline at Week 48, median ([1]; CVC 100 mg): -1.0 ng/mL | Fibrinogen baseline value, mean ([1]; CVC 100 mg): 236 mg/dL | Fibrinogen baseline value, median ([1]; CVC 100 mg): 229 mg/dL | Fibrinogen change from baseline at Week 24, mean ([1]; CVC 100 mg): -3 mg/dL | Fibrinogen change from baseline at Week 24, median ([1]; CVC 100 mg): -14 mg/dL | Fibrinogen change from baseline at Week 48, mean ([1]; CVC 100 mg): 11 mg/dL | Fibrinogen change from baseline at Week 48, median ([1]; CVC 100 mg): 15 mg/dL | IL-6 baseline value, mean ([1]; CVC 100 mg): 2.51 pg/mL | IL-6 baseline value, median ([1]; CVC 100 mg): 1.90 pg/mL | IL-6 change from baseline at Week 24, mean ([1]; CVC 100 mg): 0.42 pg/mL | IL-6 change from baseline at Week 24, median ([1]; CVC 100 mg): 0.00 pg/mL | IL-6 change from baseline at Week 48, mean ([1]; CVC 100 mg): 0.29 pg/mL | IL-6 change from baseline at Week 48, median ([1]; CVC 100 mg): 0.00 pg/mL | MCP-1 baseline value, mean ([1]; CVC 100 mg): 128 pg/mL | MCP-1 baseline value, median ([1]; CVC 100 mg): 110 pg/mL | MCP-1 change from baseline at Week 24, mean ([1]; CVC 100 mg): 493 pg/mL | MCP-1 change from baseline at Week 24, median ([1]; CVC 100 mg): 429 pg/mL | MCP-1 change from baseline at Week 48, mean ([1]; CVC 100 mg): 636 pg/mL | MCP-1 change from baseline at Week 48, median ([1]; CVC 100 mg): 523 pg/mL | hs-CRP baseline value, mean ([1]; CVC 100 mg): 0.39 mg/dL | hs-CRP baseline value, median ([1]; CVC 100 mg): 0.15 mg/dL | hs-CRP change from baseline at Week 24, mean ([1]; CVC 100 mg): -0.16 mg/dL | hs-CRP change from baseline at Week 24, median ([1]; CVC 100 mg): -0.03 mg/dL | hs-CRP change from baseline at Week 48, mean ([1]; CVC 100 mg): -0.08 mg/dL | hs-CRP change from baseline at Week 48, median ([1]; CVC 100 mg): -0.01 mg/dL | sCD14 (original values) baseline value, mean ([1]; CVC 100 mg): 1.8e+06 pg/mL | sCD14 (original values) baseline value, median ([1]; CVC 100 mg): 1.73e+06 pg/mL | sCD14 (original values) change from baseline at Week 12, mean ([1]; CVC 100 mg): -140000 pg/mL | sCD14 (original values) change from baseline at Week 12, median ([1]; CVC 100 mg): -160000 pg/mL | sCD14 (original values) change from baseline at Week 24, mean ([1]; CVC 100 mg): -190000 pg/mL | sCD14 (original values) change from baseline at Week 24, median ([1]; CVC 100 mg): -180000 pg/mL | sCD14 (original values) change from baseline at Week 32, mean ([1]; CVC 100 mg): 110000 pg/mL | sCD14 (original values) change from baseline at Week 32, median ([1]; CVC 100 mg): 120000 pg/mL | sCD14 (original values) change from baseline at Week 48, mean ([1]; CVC 100 mg): 100000 pg/mL | sCD14 (original values) change from baseline at Week 48, median ([1]; CVC 100 mg): 100000 pg/mL | D-dimer baseline value, mean ([1]; CVC 200 mg): 184 ng/mL | D-dimer baseline value, median ([1]; CVC 200 mg): 125 ng/mL | D-dimer change from baseline at Week 24, mean ([1]; CVC 200 mg): -64 ng/mL | D-dimer change from baseline at Week 24, median ([1]; CVC 200 mg): -50 ng/mL | D-dimer change from baseline at Week 48, mean ([1]; CVC 200 mg): -70 ng/mL | D-dimer change from baseline at Week 48, median ([1]; CVC 200 mg): -50 ng/mL | Fibrinogen baseline value, mean ([1]; CVC 200 mg): 248 mg/dL | Fibrinogen baseline value, median ([1]; CVC 200 mg): 260 mg/dL | Fibrinogen change from baseline at Week 24, mean ([1]; CVC 200 mg): -7 mg/dL | Fibrinogen change from baseline at Week 24, median ([1]; CVC 200 mg): -8 mg/dL

— patent publication US20180110754A1, “CENICRIVIROC FOR THE TREATMENT OF FIBROSIS” (Tobira Therapeutics, Inc., priority 2015, published 2018)
